Laboratory results reported in ChEMBL document CHEMBL4480443, “Synthesis and biological evaluation of solubilized sulfonamide analogues of the phosphatidylinositol 3-kinase inhibitor ZSTK474” (Bioorg Med Chem, 2019).

How the values were obtained:
[1] = physchem; conditions: aqueous medium with DMSO
[2] = 0.25 h
[3] = physchem; conditions: buffer

COc1cccc2c1nc(C(F)F)n2-c1nc(N2CCOCC2)nc(N2CCN(S(=O)(=O)CCN(C)C)CC2)n1.Cl showed a solubility at 0.25 h [1] of 24 µg/mL.

For COc1cccc2c1nc(C(F)F)n2-c1nc(N2CCOCC2)nc(N2CCN(S(C)(=O)=O)CC2)n1, the solubility [2] was “Insoluble”.

With COc1cccc2c1nc(C(F)F)n2-c1nc(N2CCOCC2)nc(N2CCN(S(=O)(=O)CCN(C)C)CC2)n1.CS(=O)(=O)O the solubility [3] was > 59 µg/mL.
